Literature values as cited in US20140099366A1, “Composition Containing Two Anti-Dementia Drugs” (priority 2005, published 2014).
Structures can show the parent of a compound that is named as a salt.

Test system: patients with moderate to severe Alzheimer-type dementia
Conditions: added to donepezil hydrochloride already administered, compared to placebo group

For `CC12CC3CC(C)(C1)CC(N)(C3)C2` [memantine hydrochloride], the “cognitive ability and activities of daily living” value is given as “improved”.
